In assay [1] the target is T1, BIR3 domain of human XIAP (Homo sapiens, UniProt P98170).
T1 construct: BIR3 domain of human XIAP (residues 252-350) fused to a His-tag; His-tag (cleaved yes); made in house; host or cells: Escherichia coli
Briefly: XIAP in vitro competitive displacement binding assay (fluorescence polarization). The conditions noted are these: for inhibition at 0.04 µM: 1 h, PI at 0.04 μM, read-out: Xiap IC50 or PI μM (PI). For orientation: In fluorescence polarisation assays a small probe gives low polarisation when free and higher when bound to something large.

Assay [2] has as its system EVSA-T (human breast carcinoma). Description: Anti-proliferative activity, Alamar Blue assay, EVSA-T. It is filed as cell-based. On the technique in general: Alamar Blue is a resazurin reagent that responds to reducing activity.
Where [3] appears, read: plain number = IC50, average where more than one data point, read-out: Xiap IC50 or PI μM (IC50).
The mark [4] stands for this setting: Homo sapiens, EVSA-T, 72 h, EVSA-T cells, 72 hours, Alamar Blue, read-out: EVSA-T prolif.
Where [5] appears, read: Homo sapiens, EVSA-T, read-out: EC50 in EVSA-T cell line assays.

Structures can show the parent of a compound that is named as a salt. Where two headings read alike, the source gives them in different places.

T1 sequence (P98170 252-350): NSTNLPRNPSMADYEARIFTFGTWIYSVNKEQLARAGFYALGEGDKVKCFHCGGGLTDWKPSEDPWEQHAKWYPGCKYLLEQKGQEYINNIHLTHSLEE

The IC50 is the concentration at which inhibition is half-maximal. Take `C[C@@H]1CN(CC(=O)N2CC(C)(C)c3nnc(Cc4ccc(F)cc4F)cc32)[C@@H](CN2[C@H](C)COC[C@H]2C)CN1` [Example 88, 1-{3-[(2,4-Difluorophenyl)methyl]-7,7-dimethyl-5H,6H,7H-pyrrolo[3,2-c]pyridazin-5-yl}-2-[(2R,5R)-2-{[(3R,5R)-3,5-dimethymorpholin-4-yl]methyl}-5-methylpiperazin-1-yl]ethan-1-one dihydrochloride]: the IC50 in assay [1] (setting [3]) turned out to be 0.22 µM. The EC50 in assay [2] (setting [4]) is 0.24 nM; in assay [2] (setting [5]), less than 1000 nM.

For `C[C@@H]1CN(CC(=O)N2CC(C)(C)c3ncc(Cc4ccc(F)cc4)cc32)[C@@H](CN2CC3CCC(C2)O3)CN1` [Example 18, 1-{6-[(4-Fluorophenyl)methyl]-3,3-dimethyl-1H,2H,3H-pyrrolo[3,2-b]pyridin-1-yl}-2-[(2R,5R)-5-methyl-2-{8-oxa-3-azabicyclo[3.2.1]octan-3-ylmethyl}piperazin-1-yl]ethan-1-one dihydrochloride], the inhibition at 0.04 µM in assay [1] amounted to 35%. The EC50 is 1.8 nM in assay [2] (setting [4]) and less than 1000 nM in assay [2] (setting [5]).

For `C[C@@H]1CN(CC(=O)N2CC(C)(C)c3ncc(Cc4ccc(F)cc4)cc32)[C@@H](CN2CCC[C@@H]2C(F)(F)F)CN1` [Example 38, 1-{6-[(4-Fluorophenyl)methyl]-3,3-dimethyl-1H,2H,3H-pyrrolo[3,2-b]pyridin-1-yl}-2-[(2R,5R)-5-methyl-2-{[(2R)-2-(trifluoromethyl)pyrrolidin-1-yl]methyl}piperazin-1-yl]ethan-1-one], the concentration for half-maximal inhibition (IC50) in assay [1] (setting [3]) worked out at 0.48 µM. Also, the EC50 was 34 nM in assay [2] (setting [4]) and less than 1000 nM in assay [2] (setting [5]).

`C[C@@H]1CN(CC(=O)N2CC(C)(C)c3ncc(Cc4ccc(F)cc4)cc32)[C@@H](CN2C[C@@H](C)N[C@@H](C)C2)CN1` [Example 22, 2-[(2R,5R)-2-{[(3R,5S)-3,5-Dimethylpiperazin-1-yl]methyl}-5-methylpiperazin-1-yl]-1-{6-[(4-fluorophenyl)methyl]-3,3-dimethyl-1H,2H,3H-pyrrolo[3,2-b]pyridin-1-yl}ethan-1-one dihydrochloride]: in assay [1], the inhibition at 0.04 µM stood at 40%. For the same molecule, the EC50 in assay [2] (setting [4]) was 30 nM; in assay [2] (setting [5]) it was less than 1000 nM.

As for `C[C@@H]1CN(CC(=O)N2CC(C)(C)c3ncc(Cc4ccc(F)cc4)cc32)[C@@H](CN2CCOC[C@H]2CF)CN1` [Example 19, 2-[(2R,5R)-2-{[(3S)-3-(Fluoromethyl)morpholin-4-yl]methyl}-5-methylpiperazin-1-yl]-1-{6-[(4-fluorophenyl)methyl]-3,3-dimethyl-1H,2H,3H-pyrrolo[3,2-b]pyridin-1-yl}ethan-1-one dihydrochloride], in assay [1], the inhibition at 0.04 µM amounted to 43%. The EC50 in assay [2] (setting [4]) is 0.65 nM; in assay [2] (setting [5]), less than 1000 nM.

Consider `C[C@@H]1CN(CC(=O)N2CC(C)(C)c3ncc(Cc4ccc(F)cc4)cc32)[C@@H](CN2CCCNC(=O)C2)CN1` [Example 46, 4-{[(2R,5R)-1-(2-{6-[(4-Fluorophenyl)methyl]-3,3-dimethyl-1H,2H,3H-pyrrolo[3,2-b]pyridin-1-yl}-2-oxoethyl)-5-methylpiperazin-2-yl]methyl}-1,4-diazepan-2-one, dihydrochloride], for which the concentration for half-maximal inhibition (IC50) in assay [1] (setting [3]) was 0.13 µM. Besides, the EC50 was 36 nM in assay [2] (setting [4]) and less than 1000 nM in assay [2] (setting [5]).

Consider `C[C@@H]1CN(CC(=O)N2CC(C)(C)c3cnc(Cc4ccc(F)cc4F)cc32)[C@@H](CN2CCOC[C@]2(C)CO)CN1` (single isomer, unassigned) [Example 66, dihydrochloride], for which the inhibition at 0.04 µM in assay [1] amounted to 78%. Besides, the EC50 in assay [2] (setting [4]) was 0.8 nM; in assay [2] (setting [5]) it was less than 1000 nM.

With `COC[C@@H]1COCCN1C[C@H]1CN[C@H](C)CN1CC(=O)N1CC(C)(C)c2cnc(Cc3ccc(F)cc3)cc21` [Example 96, 1-{6-[(4-Fluorophenyl)methyl]-3,3-dimethyl-1H,2H,3H-pyrrolo[3,2-c]pyridin-1-yl}-2-[(2R,5R)-2-{[(3R)-3-(methoxymethyl)morpholin-4-yl]methyl}-5-methylpiperazin-1-yl]ethan-1-one dihydrochloride], the inhibition at 0.04 µM in assay [1] is 49%. Moreover, the EC50 in assay [2] (setting [4]) was 1.7 nM; in assay [2] (setting [5]), less than 1000 nM.

Regarding `C[C@@H]1CN(CC(=O)N2CC(C)(C)c3ncc(C(O)c4cccc(F)c4)cc32)[C@@H](CN2[C@H](C)COC[C@H]2C)CN1` (single isomer, unassigned) [Example 105, 2-[(2R,5R)-2-{[(3R,5R)-3,5-Dimethylmorpholin-4-yl]methyl}-5-methylpiperazin-1-yl]-1-{6-[(R or S)-(3-fluorophenyl)-(hydroxy)methyl]-3,3-dimethyl-1H,2H,3H-pyrrolo[3,2-b]pyridin-1-yl}ethan-1-one dihydrochloride], the inhibition at 0.04 µM in assay [1] was determined as 60%. Further, the EC50 is 35 nM in assay [2] (EVSA-T cells, 72 hours, Alamar Blue, dihydrochloride, read-out: EVSA-T prolif) and less than 1000 nM in assay [2] (setting [5]).

As to `CC1COCCN1C[C@H]1CN[C@H](C)CN1CC(=O)N1CC(C)(C)c2ccc(Cc3ccc(F)cc3)cc21` (stereo partly drawn) [Example 45, 1-{6-[(4-Fluorophenyl)methyl]-3,3-dimethyl-2,3-dihydro-1H-indol-1-yl}-2-[(2R,5R)-5-methyl-2-{[(3R)-3-methylmorpholin-4-yl]methyl}piperazin-1-yl]ethan-1-one, dihydrochloride], the inhibition at 0.04 µM in assay [1] is 52%. Also, the EC50 in assay [2] (setting [4]) is 3.5 nM; in assay [2] (setting [5]) it was less than 1000 nM.

For the molecule `C[C@@H]1CN(CC(=O)N2CC(C)(C)c3ncc(Cc4ccc(F)cc4F)cc32)[C@@H](CN2CCOC[C@@]2(C)CO)CN1` [Example 58, 1-{6-[(2,4-Difluorophenyl)methyl]-3,3-dimethyl-1H,2H,3H-pyrrolo[3,2-b]pyridin-1-yl}-2-[(2R,5R)-2-{[(3R)-3-(hydroxymethyl)-3-methylmorpholin-4-l]methyl}-5-methylpiperazin-1-yl]ethan-1-one, dihydrochloride], in assay [1], the inhibition at 0.04 µM worked out at 51%. In addition, the IC50 in assay [1] (or at least 50% inhibition of the activity at 0.1 μM, read-out: IC50 in the XIAP assay) was less than 0.1 µM. The EC50 is 0.7 nM in assay [2] (setting [4]) and less than 1000 nM in assay [2] (setting [5]).

On to `C[C@@H]1CN(CC(=O)N2CC(C)(C)c3ncc(Cc4ccc(F)cc4)cc32)[C@@H](CN2CCC[C@H]2CO)CN1` [Example 12, 1-{6-[(4-Fluorophenyl)methyl]-3,3-dimethyl-1H,2H,3H-pyrrolo[3,2-b]pyridin-1-yl}-2-[(2R,5R)-2-{[(2S)-2-(hydroxymethyl)pyrrolidin-1-yl]methyl}-5-methylpiperazin-1-yl]ethan-1-one dihydrochloride], for which the IC50 in assay [1] (setting [3]) turned out to be 0.15 µM. Moreover, the EC50 is 1.6 nM in assay [2] (setting [4]) and less than 1000 nM in assay [2] (setting [5]).

For `CCCC(F)(F)c1cc2c(cn1)C(C)(C)CN2C(=O)CN1C[C@@H](C)NC[C@@H]1CN1[C@H](C)COC[C@H]1C` [Example 44, 1-[6-(1,1-Difluorobutyl)-3,3-dimethyl-1H,2H,3H-pyrrolo[3,2-c]pyridin-1-yl]-2-[2R,5R)-2-{[(3R,5R)-3,5-dimethylmorpholin-4-yl]methyl}-5-methylpiperazin-1-yl]ethan-1-one, dihydrochloride], in assay [1], the inhibition at 0.04 µM was 78%. Besides, the EC50 in assay [2] (setting [4]) is 1 nM; in assay [2] (setting [5]) it was less than 1000 nM.
